What all share (assay type): cell-based
In one data set the target is T1, PPARα (Homo sapiens, UniProt Q07869).
T1 construct: full-length PPARs plasmid DNA; expressed in transfected cells; host or cells: CV-1 cells
T1 sequence (Q07869 1-468): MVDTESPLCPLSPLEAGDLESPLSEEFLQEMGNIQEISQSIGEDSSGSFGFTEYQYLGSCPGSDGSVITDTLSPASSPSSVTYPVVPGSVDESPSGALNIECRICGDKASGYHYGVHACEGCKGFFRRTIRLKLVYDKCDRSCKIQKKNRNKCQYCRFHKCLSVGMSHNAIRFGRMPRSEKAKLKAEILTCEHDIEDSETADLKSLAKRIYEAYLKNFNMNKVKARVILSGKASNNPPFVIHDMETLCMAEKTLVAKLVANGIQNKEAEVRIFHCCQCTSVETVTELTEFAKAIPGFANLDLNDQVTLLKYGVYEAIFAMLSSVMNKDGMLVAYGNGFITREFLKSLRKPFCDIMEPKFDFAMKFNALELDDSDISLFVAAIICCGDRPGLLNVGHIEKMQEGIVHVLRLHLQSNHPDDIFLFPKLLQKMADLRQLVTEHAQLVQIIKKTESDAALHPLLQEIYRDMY
In words: Transfection assay (luciferase reporter) in CV-1 cells, PPARα. Particulars: full-length PPAR plasmid, luciferase normalized with β-galactosidase. As to the method:
(§1) The compounds prepared in Examples were tested for PPARδ activity by a transfection assay. In addition, the compounds were tested for selectivity for PPARα and PPARγ, the subtypes of PPARs, and also tested for toxicity by a MTT assay.
(§2) A transfection assay was performed using CV-1 cells. The culture of the cells was performed using a DMEM medium (10% FBS, DBS (delipidated) and 1% penicillin/streptomycin) on a 96-well plate in a 5% carbon dioxide-containing incubator at 37° C. The test was performed in four steps consisting of cell inoculation, transfection, treatment of the compounds, and analysis of results. Specifically, CV-1 cells were inoculated onto a 96-well plate at a concentration of 5,000 cells/well, and after 24 hours, the cells were transfected. In the cell transfection, full-length PPARs plasmid DNA, reporter DNA that has luciferase activity and thus allows the identification of PPARs, and β-galactosidase DNA that provides the information of transfection efficiency, were used as transfection reagents. Each of the compounds developed in the present invention was dissolved in dimethylsulfoxide (DMSO) and transfected into the cells at various concentrations using media. The cells were cultured in an incubator for 24 and then lysed with lysis buffer. The lysed cells were measured for luciferase and β-galactosidase activities using a luminometer and a microplate reader. The measured luciferase values were normalized with the β-galactosidase values and graphed. From the graph, EC50 values were determined.
On the technique in general: A reporter such as luciferase makes a cellular process visible.

The target of the next data set is T2, PPARδ (Homo sapiens, UniProt Q03181).
T2 sequence (Q03181 1-441): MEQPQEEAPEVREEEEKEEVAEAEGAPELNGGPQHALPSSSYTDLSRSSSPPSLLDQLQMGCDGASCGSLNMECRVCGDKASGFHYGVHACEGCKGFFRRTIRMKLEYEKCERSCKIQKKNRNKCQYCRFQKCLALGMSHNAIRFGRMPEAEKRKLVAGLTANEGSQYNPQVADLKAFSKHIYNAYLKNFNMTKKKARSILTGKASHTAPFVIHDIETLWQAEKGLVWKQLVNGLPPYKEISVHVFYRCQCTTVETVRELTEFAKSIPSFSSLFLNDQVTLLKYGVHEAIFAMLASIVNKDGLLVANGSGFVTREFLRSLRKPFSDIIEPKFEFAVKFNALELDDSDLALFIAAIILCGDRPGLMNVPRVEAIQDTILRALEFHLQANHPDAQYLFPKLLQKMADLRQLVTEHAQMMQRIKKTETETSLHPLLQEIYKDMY
As to the kind of experiment: Transfection assay (luciferase reporter) in CV-1 cells, PPARδ. Particulars: full-length PPAR plasmid, luciferase normalized with β-galactosidase. Set-up: full-length PPARs plasmid DNA; expressed in transfected cells; host or cells: CV-1 cells. As to the method:
as §1
as §2, with “The test was performed in four steps consisting of cell inoculation, transfection, treatment of the compounds, and analysis of results.” left out

The target in the next data set is T3, PPARγ (Homo sapiens, UniProt P37231).
T3 construct: full-length PPARs plasmid DNA; expressed in transfected cells; host or cells: CV-1 cells
T3 sequence (P37231 1-505): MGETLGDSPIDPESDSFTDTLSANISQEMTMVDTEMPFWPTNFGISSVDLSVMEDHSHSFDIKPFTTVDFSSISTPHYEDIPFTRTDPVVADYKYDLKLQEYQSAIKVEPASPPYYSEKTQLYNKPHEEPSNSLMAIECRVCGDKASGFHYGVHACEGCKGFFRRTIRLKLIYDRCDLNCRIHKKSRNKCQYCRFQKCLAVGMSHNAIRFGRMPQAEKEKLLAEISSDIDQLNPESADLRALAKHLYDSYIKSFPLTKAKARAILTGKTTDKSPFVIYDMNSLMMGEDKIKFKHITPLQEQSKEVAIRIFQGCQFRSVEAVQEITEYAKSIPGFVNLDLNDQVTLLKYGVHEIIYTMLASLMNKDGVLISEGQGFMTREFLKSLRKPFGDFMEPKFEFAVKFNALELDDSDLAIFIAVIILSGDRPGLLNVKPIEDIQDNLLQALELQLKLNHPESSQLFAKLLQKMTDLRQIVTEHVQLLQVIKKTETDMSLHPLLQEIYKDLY
In words: Transfection assay (luciferase reporter) in CV-1 cells, PPARγ. The conditions noted are these: full-length PPAR plasmid, luciferase normalized with β-galactosidase. Here is the method:
as §1
as §2, with “The test was performed in four steps consisting of cell inoculation, transfection, treatment of the compounds, and analysis of results.” left out

A further data set can be described thus: MTT assay, cytotoxicity. The conditions noted are these: African green monkey, CV-1 cells, read-out: LC50 Cytotoxicity. Here is the method: The compounds of Examples 47-97 according to the present invention were tested for cytotoxicity using a MTT assay. MTT is a water-soluble yellow substance, but if it is introduced into living cells, it will be degenerated into a water-insoluble purple crystal due to dehydrogenase contained in mitochondria. If this substance is dissolved in dimethylsulfoxide and then measured for absorbance at 550 nm, cytotoxicity can be assayed. The test method is as follows.
CV-1 cells were first inoculated onto a 96-well plate at a concentration of 5,000 cells/well. The inoculated cells were cultured in a 5% carbon dioxide-containing humidified incubator at 37° C. for 24 hours, and then treated with the inventive compounds at various concentrations. After 24 hours of culture, a MTT reagent was added to the cultured cells. After 15 minutes of culture, the resulting purple crystal was dissolved in dimethylsulfoxide and then measured for absorbance using a microplate reader. From the measured absorbance, cytotoxicity was assayed.
Background: Formazan colour is commonly taken as a measure of viable cells.

A word on the EC50: it is the concentration at which the effect is half-maximal. A high value points to lower potency in that assay. As for `Cc1cc(SC(Cc2ccc(C(F)(F)F)cc2)c2sc(-c3ccc(C(F)(F)F)cc3)nc2C)ccc1OCC(=O)O` (centres unmarked) [Example 78, 2-[4-[2-[4-(trifluoromethyl)phenyl]-1-[2-[4-(trifluoromethyl)phenyl]-4-methylthiazol-5-yl]ethylthio]-2-methylphenoxy]acetic acid], the “EC50 PPARα” value at PPARα is “ia”. The molecule also returned a concentration for a half-maximal effect (EC50) on PPARδ of 13.3 nM. For the same molecule, at PPARγ, the “EC50 PPARγ” value is on record as “ia”. Besides, in the data set “MTT assay, cytotoxicity”, the CC50 at 24 h was over 100000 nM.

As to `COc1cc(CC(Sc2ccc(OCC(=O)O)c(C)c2)c2sc(-c3ccc(C(F)(F)F)cc3)nc2C)cc(OC)c1` (centres unmarked) [Example 79, 2-[4-[1-[2-[4-(trifluoromethyl)phenyl]-4-methylthiazol-5-yl]-2-(3,5-dimethoxyphenyl)ethylthio]-2-methylphenoxy]acetic acid], the “EC50 PPARα” value at PPARα was “ia”. The molecule further displayed an EC50 on PPARδ of 46.4 nM. Moreover, the “EC50 PPARγ” value on PPARγ is “ia”. Also, the CC50 at 24 h in the data set “MTT assay, cytotoxicity” was over 100000 nM.

On to `Cc1cc(SC(Cc2c(F)cccc2F)c2sc(-c3ccc(C(F)(F)F)cc3)nc2C)ccc1OCC(=O)O` (centres unmarked) [Example 83, 2-[4-[1-[2-[4-(trifluoromethyl)phenyl]-4-methylthiazol-5-yl]-2-(2,6-difluorophenyl)ethylthio]-2-methylphenoxy]acetic acid], for which the EC50 on PPARα is over 100000 nM; at PPARδ it was 2.6 nM; at PPARγ, over 10000 nM. Besides, in “MTT assay, cytotoxicity”, the CC50 at 24 h was over 100000 nM.

In the case of `Cc1cc(SC(Cc2c(Cl)cccc2Cl)c2sc(-c3ccc(C(F)(F)F)cc3)nc2C)ccc1OCC(=O)O` (centres unmarked) [Example 84, 2-[4-[2-(2,6-dichlorophenyl)-1-[2-[4-(trifluoromethyl)phenyl]-4-methylthiazol-5-yl]ethylthio]-2-methylphenoxy]acetic acid], on PPARα, the “EC50 PPARα” value is listed as “ia”. In addition, a half-maximal response at PPARδ (EC50) required 2.1 nM. For the same molecule, the “EC50 PPARγ” value on PPARγ was “ia”. The CC50 at 24 h in “MTT assay, cytotoxicity” is over 100000 nM.

As for `Cc1cc(SC(Cc2ccc(F)cc2F)c2sc(-c3ccc(C(F)(F)F)cc3)nc2C)ccc1OCC(=O)O` (centres unmarked) [Example 85, 2-[4-[1-[2-[4-(trifluoromethyl)phenyl]-4-methylthiazol-5-yl]-2-(2,4-difluorophenyl)ethylthio]-2-methylphenoxy]acetic acid], on PPARα, the “EC50 PPARα” value is recorded as “ia”. At PPARδ, this molecule yielded an EC50 of 3.4 nM. Also, on PPARγ, the “EC50 PPARγ” value is “ia”. In addition, in “MTT assay, cytotoxicity”, the CC50 at 24 h was over 100000 nM.

On to `Cc1cc(SC(Cc2cc(F)ccc2Cl)c2sc(-c3ccc(C(F)(F)F)cc3)nc2C)ccc1OCC(=O)O` (centres unmarked) [Example 86, 2-[4-[2-(2-chloro-5-fluorophenyl)-1-[2-[4-(trifluoromethyl)phenyl]-4-methylthiazol-5-yl]ethylthio]-2-methylphenoxy]acetic acid], for which the “EC50 PPARα” value on PPARα is “ia”. This molecule showed an EC50 on PPARδ of 8.7 nM. Moreover, the “EC50 PPARγ” value at PPARγ was “ia”. Also, in the data set “MTT assay, cytotoxicity”, the CC50 at 24 h was over 100000 nM.

Regarding `Cc1cc(SC(Cc2c(F)cccc2Cl)c2sc(-c3ccc(C(F)(F)F)c(F)c3)nc2C)ccc1OCC(=O)O` (centres unmarked) [Example 91, 2-[4-[2-(2-chloro-6-fluorophenyl)-1-[2-[3-fluoro-4-(trifluoromethyl)phenyl]-4-methylthiazol-5-yl]ethylthio]-2-methylphenoxy]acetic acid], the “EC50 PPARα” value at PPARα is “ia”. In addition, the response on PPARδ was half-maximal at 3.9 nM (EC50). Besides, the “EC50 PPARγ” value on PPARγ is “ia”. Moreover, the CC50 at 24 h in “MTT assay, cytotoxicity” was over 10000 nM.

Regarding `Cc1cc(SC(Cc2cc(F)c(F)c(F)c2)c2sc(-c3ccc(C(F)(F)F)c(F)c3)nc2C)ccc1OCC(=O)O` (centres unmarked) [Example 92, 2-[4-[1-[2-[3-fluoro-4-(trifluoromethyl)phenyl]-4-methylthiazol-5-yl]-2-(3,4,5-trifluorophenyl)ethylthio]-2-methylphenoxy]acetic acid], the “EC50 PPARα” value on PPARα is listed as “ia”. Further, at PPARδ, the EC50 was 21.6 nM. On PPARγ, the “EC50 PPARγ” value was “ia”. Further, in the data set “MTT assay, cytotoxicity”, the CC50 at 24 h was over 30000 nM.

Turning to `Cc1cc(SC(Cc2c(F)cccc2C(F)(F)F)c2sc(-c3ccc(C(F)(F)F)c(F)c3)nc2C)ccc1OCC(=O)O` (centres unmarked) [Example 93, 2-[4-[1-[2-[3-fluoro-4-(trifluoromethyl)phenyl]-4-methylthiazol-5-yl]-2-(2-fluoro-6-(trifluoromethyl)phenyl)ethylthio]-2-methylphenoxy]acetic acid], at PPARα, the “EC50 PPARα” value was “ia”. On PPARδ, the EC50 worked out at 2.6 nM. In addition, the “EC50 PPARγ” value at PPARγ is given as “ia”. The CC50 at 24 h in the data set “MTT assay, cytotoxicity” was over 10000 nM.

On to `Cc1cc(SC(Cc2c(F)cccc2F)c2sc(-c3ccc(C(F)(F)F)c(F)c3)nc2C)ccc1OCC(=O)O` (centres unmarked) [Example 94, 2-[4-[1-[2-[3-fluoro-4-(trifluoromethyl)phenyl]-4-methylthiazol-5-yl]-2-(2,6-difluorophenyl)ethylthio]-2-methylphenoxy]acetic acid], for which the “EC50 PPARα” value at PPARα is on record as “ia”. Moreover, the EC50 at PPARδ turned out to be 0.9 nM. Also, at PPARγ, the “EC50 PPARγ” value is on record as “ia”. Also, the CC50 at 24 h in the data set “MTT assay, cytotoxicity” is over 10000 nM.

Regarding `Cc1cc(SC(Cc2c(Cl)cccc2Cl)c2sc(-c3ccc(C(F)(F)F)c(F)c3)nc2C)ccc1OCC(=O)O` (centres unmarked) [Example 95, 2-[4-[2-(2,6-dichlorophenyl)-1-[2-[3-fluoro-4-(trifluoromethyl)phenyl]-4-methylthiazol-5-yl]ethylthio]-2-methylphenoxy]acetic acid], at PPARα, the “EC50 PPARα” value is reported as “ia”. Moreover, at PPARδ, the midpoint of the response, the EC50, lay at 2.3 nM. The “EC50 PPARγ” value on PPARγ is reported as “ia”. Moreover, in “MTT assay, cytotoxicity”, the CC50 at 24 h was over 10000 nM.

For the origin of these results see patent publication US20090054493A1, “THIAZOLE DERIVATIVES AS PPAR DELTA LIGANDS AND THEIR MANUFACTURING PROCESS” (priority 2005, published 2009).
